Measurements reported in US20030013761A1, “Use of fumaric acid derivatives for treating mitochondrial diseases” (priority 2000, published 2003).
Where a name gives a salt, the structure may show the parent alone.

These compounds were tested against T1, succinate dehydrogenase (Homo sapiens, UniProt P31040) (assay: Stimulating influence of fumaric acid derivatives on the enzyme activity of succinate dehydrogenase in fibroblasts). Settings: Fibroblasts [0.75 m Val/I].
T1 construct: Fibroblasts [0.75 m Val/I]; endogenous in cells
Type: cell-based
From the text: Succinate dehydrogenase is part of the mitochondrial membrane and catalyses the […] of succinic acid to fumaric acid within the citrate cycle. Hydrogen is passed to the respiratory chain via the electron transfer flavoprotein. Thus, the activity of succinate dehydrogenase may influence the electron flow of the electron transport chain. The latter, in turn, is linked to the process of oxidative phosphorylation, the malfunction of which is considered a cause for mitochondrial diseases. Consequently, the activity of succinate dehydrogenase may also have an effect on oxidative phosphorylation.

T1 sequence (P31040 43-664): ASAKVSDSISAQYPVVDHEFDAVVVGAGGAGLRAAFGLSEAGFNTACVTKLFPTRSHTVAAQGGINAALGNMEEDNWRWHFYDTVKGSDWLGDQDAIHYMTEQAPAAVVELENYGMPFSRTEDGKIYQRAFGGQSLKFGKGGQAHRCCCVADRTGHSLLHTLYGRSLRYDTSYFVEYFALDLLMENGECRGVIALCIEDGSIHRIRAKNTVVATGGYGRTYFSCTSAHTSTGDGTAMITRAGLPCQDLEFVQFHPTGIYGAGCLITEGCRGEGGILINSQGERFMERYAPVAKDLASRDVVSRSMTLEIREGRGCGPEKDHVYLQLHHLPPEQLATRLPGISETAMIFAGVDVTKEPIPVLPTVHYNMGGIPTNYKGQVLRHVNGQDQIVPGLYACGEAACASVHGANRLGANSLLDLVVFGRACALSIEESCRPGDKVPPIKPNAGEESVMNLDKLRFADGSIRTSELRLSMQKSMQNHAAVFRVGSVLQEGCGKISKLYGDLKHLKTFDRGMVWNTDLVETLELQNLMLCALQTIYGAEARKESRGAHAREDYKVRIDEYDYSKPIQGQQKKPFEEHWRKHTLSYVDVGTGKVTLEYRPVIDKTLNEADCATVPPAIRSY
T1 sequence (P21912 29-280 partner): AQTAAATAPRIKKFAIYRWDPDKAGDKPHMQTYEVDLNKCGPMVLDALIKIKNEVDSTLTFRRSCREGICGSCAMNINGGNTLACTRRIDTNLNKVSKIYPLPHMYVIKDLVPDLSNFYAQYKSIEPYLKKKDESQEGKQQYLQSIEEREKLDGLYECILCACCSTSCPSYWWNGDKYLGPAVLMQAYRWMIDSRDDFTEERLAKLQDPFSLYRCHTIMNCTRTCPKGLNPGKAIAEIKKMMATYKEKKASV
T1 sequence (Q99643 30-169 partner): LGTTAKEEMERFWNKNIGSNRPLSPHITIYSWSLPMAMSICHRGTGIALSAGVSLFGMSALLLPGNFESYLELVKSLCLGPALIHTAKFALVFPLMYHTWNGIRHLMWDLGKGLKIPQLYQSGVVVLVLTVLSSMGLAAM
T1 sequence (O14521 57-159 partner): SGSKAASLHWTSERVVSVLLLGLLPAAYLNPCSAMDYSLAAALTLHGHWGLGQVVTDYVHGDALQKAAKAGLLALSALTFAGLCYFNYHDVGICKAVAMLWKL

Compound	evaluation of the stimulating influence on the enzyme activity of succinate dehydrogenase (grade in words)	stimulation of the enzyme activity of succinate dehydrogenase (percent in brackets)
CCOC(=O)/C=C/C(=O)[O-].[Ca+] [Calcium monoethyl fumarate]	medium	
COC(=O)/C=C/C(=O)OC [Dimethyl fumarate]	strong	838%
CCOC(=O)/C=C/C(=O)[O-].[Mg+] [Magnesium monoethyl fumarate]	weak	
CCOC(=O)/C=C/C(=O)O [Monoethyl fumarate]	weak	
CCOC(=O)/C=C/C(=O)[O-].[Zn+] [Zinc monoethyl fumarate]	strong	107%
